How the values were obtained:
[1] = tested on: A549-ACE2 infected with SARS-CoV-2; assay: morphology score (similarity to uninfected cells); higher = more like uninfected cells; details: 24 h
[2] = tested on: A549-ACE2 infected with SARS-CoV-2; assay: SARS-CoV-2 infection rate relative to DMSO; higher = more infection; details: 24 h
[3] = tested on: U2OS; assay: relative viability EC50 (midpoint between 100% and the lowest measured viability); higher = less toxic; details: 72 h
[4] = tested on: Calu-3; assay: as above; details: 72 h
[5] = tested on: A549-ACE2; assay: phospholipidosis EC50; higher = less potent phospholipidosis inducer
[6] = tested on: Vero E6; assay: cell viability relative to DMSO; higher = less toxic; details: 72 h
[7] = tested on: U2OS; assay: as above; details: 72 h
[8] = tested on: Caco-2; assay: as above; details: 72 h
[9] = tested on: HepG2; assay: as above; details: 72 h
[10] = tested on: Calu-3; assay: as above; details: 72 h
[11] = tested on: A549-ACE2 infected with SARS-CoV-2; assay: cell count relative to DMSO; higher = less toxic; details: 24 h
[12] = tested on: A549-ACE2; assay: drug-induced phospholipidosis relative to tamoxifen; higher = more phospholipidosis
[13] = tested on: Vero E6; assay: drug sensitivity score (DSS) for viability; higher = more toxic; extreme values may be limits of the assay; details: 72 h
[14] = tested on: U2OS; assay: as above; details: 72 h
[15] = tested on: Caco-2; assay: as above; details: 72 h
[16] = tested on: HepG2; assay: as above; details: 72 h
[17] = tested on: Calu-3; assay: as above; details: 72 h
[18] = tested on: Vero E6; assay: relative viability EC50 (midpoint between 100% and the lowest measured viability); higher = less toxic; details: 72 h
[19] = tested on: Caco-2; assay: as above; details: 72 h
[20] = tested on: HepG2; assay: as above; details: 72 h

O=C(c1ccc(OCCN2CCCCC2)cc1)c1c(-c2ccc(O)cc2)sc2cc(O)ccc12 [raloxifene]
Details	SARS-CoV-2 infection rate [%]	cell count [%]	cell viability [%]	morphology score	phospholipidosis EC50 [µM]
[1], 0.1 µM	–	–	–	-0.07	–
[1], 0.3 µM	–	–	–	0.17	–
[1], 1 µM	–	–	–	-0.1	–
[1], 3 µM	–	–	–	0.42	–
[2], 0.1 µM	99	–	–	–	–
[2], 0.3 µM	97	–	–	–	–
[2], 1 µM	104	–	–	–	–
[2], 3 µM	84	–	–	–	–
[5], 72 h	–	–	–	–	29.8
[6], 1 nM	–	–	107	–	–
[6], 10 nM	–	–	98.8	–	–
[6], 100 nM	–	–	99.3	–	–
[6], 1000 nM	–	–	94.8	–	–
[6], 10000 nM	–	–	67.9	–	–
[7], 1 nM	–	–	93	–	–
[7], 10 nM	–	–	91.3	–	–
[7], 100 nM	–	–	97.7	–	–
[7], 1000 nM	–	–	95.4	–	–
[7], 10000 nM	–	–	89.9	–	–
[8], 1 nM	–	–	108	–	–
[8], 10 nM	–	–	82.9	–	–
[8], 100 nM	–	–	100	–	–
[8], 1000 nM	–	–	78.3	–	–
[8], 10000 nM	–	–	60.9	–	–
[9], 1 nM	–	–	91.4	–	–
[9], 10 nM	–	–	95.2	–	–
[9], 100 nM	–	–	93.6	–	–
[9], 1000 nM	–	–	101	–	–
[9], 10000 nM	–	–	74.1	–	–
[10], 1 nM	–	–	102	–	–
[10], 10 nM	–	–	92.4	–	–
[10], 100 nM	–	–	98.1	–	–
[10], 1000 nM	–	–	103	–	–
[10], 10000 nM	–	–	79.5	–	–
[11], 0.1 µM	–	94	–	–	–
[11], 0.3 µM	–	102	–	–	–
[11], 1 µM	–	97	–	–	–
[11], 3 µM	–	106	–	–	–

Details	drug sensitivity score	relative viability EC50 [µM]
[3]	–	> 10
[4]	–	> 10
[13]	2.3	–
[14]	0	–
[15]	4.6	–
[16]	1	–
[17]	0.5	–

drug-induced phospholipidosis [%], [12]
Details	0.3 µM	0.833333 µM	3.33333 µM	6.66667 µM	10 µM	30 µM
24 h	-1.05	-0.52	10.1	22.3	37.7	-2.02
48 h	3.44	1.43	14.5	28.6	41	26.2
72 h	4.4	2.6	17.4	36	56	–

CNC(=O)c1cc(Oc2ccc(NC(=O)Nc3cc(C(C)(C)C)nn3-c3ccc4ncccc4c3)c(F)c2)ccn1 [rebastinib]
Details	SARS-CoV-2 infection rate, [2] [%]	cell count, [11] [%]	cell viability, [6] [%]	cell viability, [7] [%]	cell viability, [8] [%]	cell viability, [9] [%]	cell viability, [10] [%]	morphology score, [1]
1 nM	–	–	98.2	97.9	98.4	104	100	–
10 nM	–	–	96.8	96.4	89.9	102	97.5	–
0.1 µM	97	104	–	–	–	–	–	0.31
100 nM	–	–	102	97	95.4	108	105	–
0.3 µM	92	103	–	–	–	–	–	0.24
1 µM	92	102	–	–	–	–	–	0.22
1000 nM	–	–	112	108	114	28.6	90.8	–
3 µM	95	96	–	–	–	–	–	0.12
10000 nM	–	–	9.9	9.6	30	6.1	42.6	–

Details	drug sensitivity score	relative viability EC50 [µM]
[3]	–	3.62
[4]	–	1.94
[13]	4.3	–
[14]	4.4	–
[15]	3.1	–
[16]	13.3	–
[17]	4.6	–
[18]	–	3.74
[19]	–	3.94
[20]	–	0.638

drug-induced phospholipidosis [%], [12]
Details	0.3 µM	0.833333 µM	3.33333 µM	6.66667 µM	10 µM
24 h	-0.9	-2.36	-1.54	-1.91	-2.66
48 h	-0.69	-2.5	-1.43	-0.4	0.77
72 h	0.586	-3.51	-2.2	1.53	5.87

OCc1cc(C(O)CNCCCCCCOCCCCc2ccccc2)ccc1O (stereo not given) [salmeterol]
Details	SARS-CoV-2 infection rate [%]	cell count [%]	cell viability [%]	morphology score	phospholipidosis EC50 [µM]
[1], 0.3 µM	–	–	–	-0.02	–
[1], 3 µM	–	–	–	0.15	–
[1], 10 µM	–	–	–	0.89	–
[1], 30 µM	–	–	–	0.58	–
[2], 0.3 µM	107	–	–	–	–
[2], 3 µM	91	–	–	–	–
[2], 10 µM	19	–	–	–	–
[2], 30 µM	17	–	–	–	–
[5], 24 h	–	–	–	–	5.09
[5], 48 h	–	–	–	–	7.38
[5], 72 h	–	–	–	–	8.86
[6], 1 nM	–	–	101	–	–
[6], 10 nM	–	–	106	–	–
[6], 100 nM	–	–	101	–	–
[6], 1000 nM	–	–	107	–	–
[6], 10000 nM	–	–	97.5	–	–
[7], 1 nM	–	–	103	–	–
[7], 10 nM	–	–	97.7	–	–
[7], 100 nM	–	–	99.9	–	–
[7], 1000 nM	–	–	99.3	–	–
[7], 10000 nM	–	–	95.2	–	–
[8], 1 nM	–	–	97.4	–	–
[8], 10 nM	–	–	96.6	–	–
[8], 100 nM	–	–	95.1	–	–
[8], 1000 nM	–	–	92.7	–	–
[8], 10000 nM	–	–	86.6	–	–
[9], 1 nM	–	–	107	–	–
[9], 10 nM	–	–	107	–	–
[9], 100 nM	–	–	94	–	–
[9], 1000 nM	–	–	105	–	–
[9], 10000 nM	–	–	70.8	–	–
[10], 1 nM	–	–	112	–	–
[10], 10 nM	–	–	97.4	–	–
[10], 100 nM	–	–	100	–	–
[10], 1000 nM	–	–	99	–	–
[10], 10000 nM	–	–	98.9	–	–
[11], 0.3 µM	–	101	–	–	–
[11], 3 µM	–	108	–	–	–
[11], 10 µM	–	121	–	–	–
[11], 30 µM	–	102	–	–	–

Details	drug sensitivity score	relative viability EC50 [µM]
[3]	–	> 10
[4]	–	> 10
[13]	0	–
[14]	0	–
[15]	0.1	–
[16]	1	–
[17]	0	–
[18]	–	> 10
[19]	–	> 10

drug-induced phospholipidosis [%], [12]
Details	0.3 µM	0.833333 µM	3.33333 µM	6.66667 µM	10 µM	30 µM
24 h	-0.12	-0.14	9.06	65.1	85.7	80.3
48 h	2.35	2.68	8.06	52.9	83.5	117
72 h	3.27	1.57	6.45	37.9	80.7	130

COc1cc2c(cc1OC)-c1c/c(=N\c3c(C)cc(C)cc3C)n(C)c(=O)n1CC2 [trequinsin]
Details	SARS-CoV-2 infection rate, [2] [%]	cell count, [11] [%]	cell viability, [6] [%]	cell viability, [7] [%]	cell viability, [8] [%]	cell viability, [9] [%]	cell viability, [10] [%]	morphology score, [1]
1 nM	–	–	92.2	96.8	97.5	102	102	–
10 nM	–	–	97.1	99.7	91.9	94.4	89.5	–
100 nM	–	–	97	97.6	97.2	102	94.3	–
0.3 µM	97	100	–	–	–	–	–	0.06
1000 nM	–	–	92.7	99.6	97	92.8	100	–
3 µM	93	103	–	–	–	–	–	0.26
10 µM	59	111	–	–	–	–	–	0.67
10000 nM	–	–	89.1	95.5	86.4	84.1	85	–
30 µM	19	110	–	–	–	–	–	0.75

Details	drug sensitivity score	relative viability EC50 [µM]
[3]	–	> 10
[4]	–	> 10
[13]	0	–
[14]	0	–
[15]	0	–
[16]	0.9	–
[17]	0.2	–
[18]	–	> 10
[19]	–	> 10
[20]	–	> 10

drug-induced phospholipidosis [%], [12]
Details	0.3 µM	0.833333 µM	3.33333 µM	6.66667 µM	10 µM	30 µM
24 h	3.52	0.24	10.1	3.08	1.51	20.8
48 h	3.24	1.48	5.48	3.57	5.51	32.1
72 h	4.95	1.02	3.84	4.01	6.79	–

Reference: the supplement of paper PMC13380429
